Reference: patent publication US6750228B1, “Aromatic sulfone hydroxamic acid metalloprotease inhibitor” (priority 1997, dated 2004)
pIC50: −log10 of the molar value. Where two headings read alike, the source gives them in different places.

Tests used:
MMP-13 = target: T1, MMP-13 (Homo sapiens, UniProt P45452); assay: biochemical; conditions: read-out: MMP-13 IC50
T1 construct: made in house; host or cells: baculovirus / insect cells
Method: (§1) The compounds prepared in the manner described in the Examples above were assayed for activity by an in vitro assay. […] Briefly, 4-aminophenylmercuric acetate (APMA) or trypsin-activated MMPs were incubated with various concentrations of the inhibitor compound at room temperature for 5 minutes.
(§2) The expressed enzyme was purified first over a heparin agarose column and then over a chelating zinc chloride column. The proenzyme was activated by APMA for use in the assay.
(§3) MMP-1 expressed in transfected HT-1080 cells was provided by Dr. Harold Welgus of Washington University, St. Louis, Mo. The enzyme was also activated using APMA and was then purified over a hydroxamic acid column. Dr. Welgus also provided transfected HT-1080 cells that expressed MMP-9. Transfected cells that expressed MMP-2 were provided by Dr. Gregory Goldberg, also of Washington University. Studies with MMP-7 were carried out at pH 7.5 in the presence of 0.02% 2-mercaptoethanol using conditions otherwise similar to those used for the other enzymes. The enzyme was obtaind from a hMMP-7-expressing E. coli clone that was a gift of Dr. Steven Shapiro of Washington University, St. Louis, Mo. Further specifics for preparation and use of these enzymes can be found in the scientific literature describing these enzymes. See, for example, Enzyme Nomenclature, Academic Press, San Diego, Calif. […] The enzyme substrate is a methoxycoumarin-containing polypeptide having the following sequence:
(§4) MCA-ProLeuGlyLeuDpaAlaArgNH2, wherein MCA is methoxycoumarin and Dpa is 3-(2,4-dinitrophenyl)-L-2,3-diaminopropionyl alanine.
(§5) The buffer used for assays contained 100 mM Tris-HCl, 100 mM NaCl, 10 mM CaCl2 and 0.05 percent polyethyleneglycol (23) lauryl ether at a pH value of 7.5. Assays were carried out at room temperature, and dimethyl sulfoxide (DMSO) at a final concentration of 1 percent was used to dissolve inhibitor compound.
(§6) The assayed inhibitor compound in DMSO/buffer solution was compared to an equal amount of DMSO/buffer with no inhibitor as control using Microfluor White Plates (Dynatech). The inhibitor or control solution was maintained in the plate for 10 minutes and the substrate was added to provide a final concentration of 4 μM.
(§7) Inhibition was measured as a reduction in fluorescent intensity as a function of inhibitor concentration, using a Perkin Elmer L550 plate reader. The IC50 values were calculated from those values. The results are set forth in the Inhibition Table A, below, reported in terms of IC50 to three significant figures, where appropriate.

MMP-2 = target: T2, MMP-2 (Homo sapiens, UniProt P08253); assay: biochemical; conditions: for pIC50: read-out: MMP-2 IC50; for IC50: MMP-2 IC50 (nM)
T2 construct: made in house; provided by Dr. Gregory Goldberg, Washington University
T2 sequence (P08253 110-660): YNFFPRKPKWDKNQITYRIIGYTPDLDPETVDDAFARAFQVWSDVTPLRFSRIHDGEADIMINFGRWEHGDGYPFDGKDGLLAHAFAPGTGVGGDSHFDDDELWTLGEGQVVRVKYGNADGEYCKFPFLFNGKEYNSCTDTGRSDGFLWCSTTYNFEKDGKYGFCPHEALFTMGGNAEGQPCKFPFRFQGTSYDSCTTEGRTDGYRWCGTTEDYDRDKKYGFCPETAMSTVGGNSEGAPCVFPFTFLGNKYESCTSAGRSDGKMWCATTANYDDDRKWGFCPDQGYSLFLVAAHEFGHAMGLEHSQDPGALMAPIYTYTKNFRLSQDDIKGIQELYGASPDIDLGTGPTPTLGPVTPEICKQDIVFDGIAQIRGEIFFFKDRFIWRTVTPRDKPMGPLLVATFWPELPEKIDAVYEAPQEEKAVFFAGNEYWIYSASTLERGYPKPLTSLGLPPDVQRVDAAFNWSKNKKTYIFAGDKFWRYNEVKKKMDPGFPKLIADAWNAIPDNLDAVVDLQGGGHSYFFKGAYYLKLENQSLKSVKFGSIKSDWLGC
Method: as §1, §2, §3, §4, §5, §6, §7

[1] = recombinant human MMP-13, MCA peptide substrate 4 μM, pH 7.5, room temperature
[2] = recombinant human MMP-2, MCA peptide substrate 4 μM, pH 7.5, room temperature

Row | SMILES | pIC50 (MMP-13; [1]) | pIC50 (MMP-2; [2]) | IC50 (MMP-2) | pIC50 (MMP-13) | pIC50 (MMP-2)
1 | O=C(NO)C1(S(=O)(=O)c2ccc(N3CCN(c4ccc(Cl)cc4)CC3)cc2)CCN(C2CC2)CC1 [Example 354] | 8.80 | 7.81 | – | – | –
2 | O=C(NO)C1(S(=O)(=O)c2ccc(Oc3ccc(C(F)(F)F)cc3)cc2)CCN(C2CC2)CC1 [Example 271] | – | – | 0.17 nM | – | –
3 | COc1ccc(CC(=O)C2CCN(c3ccc(S(=O)(=O)C4(C(=O)NO)CCOCC4)cc3)CC2)cc1 [Example 862] | 8.77 | 7.40 | – | – | –
4 | O=C(NO)C1(S(=O)(=O)c2ccc(N3CCC(Sc4nc5ccccc5o4)CC3)cc2)CCN(C2CC2)CC1 [Example 382] | 7.94 | 6.59 | – | – | –
5 | O=C(NO)C1(S(=O)(=O)c2ccc(N3CCN(CCO)CC3)cc2)CCOCC1 [Example 623] | 6.46 | 5.85 | – | – | –
6 | Cc1ccc(C(=O)C2CCN(c3ccc(S(=O)(=O)C4(C(=O)NO)CCN(C5CC5)CC4)cc3)CC2)cc1 [Example 373] | 8.52 | 7.10 | – | – | –
7 | O=C(Cc1ccc(Cl)cc1)C1CCN(c2ccc(S(=O)(=O)C3(C(=O)NO)CCOCC3)cc2)CC1 [Example 861] | 8.70 | 7.46 | – | – | –
8 | Cc1ccc(C2CCN(c3ccc(S(=O)(=O)C4(C(=O)NO)CCOCC4)cc3)CC2)cc1C [Example 869] | 8.70 | 7.11 | – | – | –
9 | CN(C)c1ccc(S(=O)(=O)C2CCN(c3ccc(S(=O)(=O)C4(C(=O)NO)CCOCC4)cc3)CC2)cc1 [Example 836] | 6.87 | 5.38 | – | – | –
10 | O=C(NO)C1(S(=O)(=O)c2ccc(N3CCN(c4ccccc4)CC3)cc2)CCN(C2CC2)CC1 [Example 369] | 8.48 | 8.27 | – | – | –
11 | C#CCN1CCC(C(N)=O)(S(=O)(=O)c2ccc(Sc3ccccc3)cc2)CC1 [Example 2] | 5.26 | 5.22 | – | – | –
12 | CSc1ccc(C(=O)C2CCN(c3ccc(S(=O)(=O)C4(C(=O)NO)CCOCC4)cc3)CC2)cc1 [Example 856] | 8.92 | 6.60 | – | – | –
13 | O=C(NO)C1(S(=O)(=O)c2ccc(C3=CCC(c4ccccc4)CC3)cc2)CCOCC1 (centres unmarked) [Example 828] | 8.82 | 7.89 | – | – | –
14 | CNC(=S)N1CCC(C(=O)NO)(S(=O)(=O)c2ccc(Oc3ccc(OC(F)(F)F)cc3)cc2)CC1 [Example 198, N-hydroxy-4[[4-(4-trifluoromethoxyphenoxy)-]sulfonyl]-1-(N-methylthiourea)-4-piperidinecarboxamide] | 9.43 | 9.60 | – | – | –
15 | CN(C)S(=O)(=O)N1CC(Oc2ccc(S(=O)(=O)C3(C(=O)NO)CCOCC3)cc2)C1 [Example 853] | 7.80 | 6.92 | – | – | –
16 | CC(=O)c1ccccc1S(=O)(=O)N1CC(Oc2ccc(S(=O)(=O)C3(C(=O)NO)CCOCC3)cc2)C1 [Example 854] | 7.40 | 5.48 | – | – | –
17 | O=C(c1ccc(Cl)cc1)C1CCN(c2ccc(S(=O)(=O)C3(C(=O)NO)CCOCC3)cc2)CC1 [Example 857] | 8.89 | 6.92 | – | – | –
18 | CS(=O)(=O)c1ccccc1S(=O)(=O)N1CC(Oc2ccc(S(=O)(=O)C3(C(=O)NO)CCOCC3)cc2)C1 [Example 845] | 7.54 | 5.70 | – | – | –
19 | COc1ccccc1N1CCN(c2ccc(S(=O)(=O)C3(C(=O)NO)CCOCC3)cc2)CC1 [Example 85] | 6.89 | 6.43 | – | – | –
20 | O=C(C1CCN(c2ccc(S(=O)(=O)C3(C(=O)NO)CCOCC3)cc2)CC1)N1CCN(c2ccc(C(F)(F)F)cc2)CC1 [Example 38] | – | – | – | 7.17 | 5.22
21 | Cc1ccc(C(O)C2CCN(c3ccc(S(=O)(=O)C4(C(=O)NO)CCOCC4)cc3)CC2)cc1C (centres unmarked) [Example 826] | 7.40 | 6.19 | – | – | –
22 | COc1ccc(N2CCN(c3ccc(S(=O)(=O)C4(C(=O)NO)CCN(C5CC5)CC4)cc3)CC2)cc1 [Example 368] | – | 8.15 | – | – | –
23 | O=C(NO)C1(S(=O)(=O)c2ccc(Oc3ccc(C(F)(F)F)cc3)cc2)CCN(C2CC2)CC1 [Example 269] | – | – | < 0.1 nM | – | –
24 | O=C(NO)C1(S(=O)(=O)c2ccc(Oc3ccc(C(F)(F)F)cc3)cc2)CCN(C2CC2)CC1 [Example 270] | – | – | 1 nM | – | –
